US9296710B2, “Bicyclo (3.1.0) hexane-2, 6-dicarboxylic acid derivatives as mGlu2 receptor agonist” (Eli Lilly and Company, priority 2011, dated 2016)
Structures can show the parent of a compound that is named as a salt.

Assays:
PepT1 = biological target: T1, PepT1 (Homo sapiens, UniProt P46059); test: In Vitro PepT1 GlySar Inhibition Screen; format: cell-based; conditions: for GlySar uptake inhibition, mean values ± standard deviation (controls): negative and positive controls run in parallel, n=18-19; for inhibition at 5000 µM: prodrug at 5 mM, pH 6.0, PepT1 transiently transfected HeLa cells, 5 μM [14C]Gly-Sar and 20 μM cold Gly-Sar, read-out: Mean GlySar Uptake Inhibition %
T1 construct: expressed in transfected cells; host or cells: HeLa cells (ATCC), transient transfection with FUGENE6
T1 sequence (P46059 1-708): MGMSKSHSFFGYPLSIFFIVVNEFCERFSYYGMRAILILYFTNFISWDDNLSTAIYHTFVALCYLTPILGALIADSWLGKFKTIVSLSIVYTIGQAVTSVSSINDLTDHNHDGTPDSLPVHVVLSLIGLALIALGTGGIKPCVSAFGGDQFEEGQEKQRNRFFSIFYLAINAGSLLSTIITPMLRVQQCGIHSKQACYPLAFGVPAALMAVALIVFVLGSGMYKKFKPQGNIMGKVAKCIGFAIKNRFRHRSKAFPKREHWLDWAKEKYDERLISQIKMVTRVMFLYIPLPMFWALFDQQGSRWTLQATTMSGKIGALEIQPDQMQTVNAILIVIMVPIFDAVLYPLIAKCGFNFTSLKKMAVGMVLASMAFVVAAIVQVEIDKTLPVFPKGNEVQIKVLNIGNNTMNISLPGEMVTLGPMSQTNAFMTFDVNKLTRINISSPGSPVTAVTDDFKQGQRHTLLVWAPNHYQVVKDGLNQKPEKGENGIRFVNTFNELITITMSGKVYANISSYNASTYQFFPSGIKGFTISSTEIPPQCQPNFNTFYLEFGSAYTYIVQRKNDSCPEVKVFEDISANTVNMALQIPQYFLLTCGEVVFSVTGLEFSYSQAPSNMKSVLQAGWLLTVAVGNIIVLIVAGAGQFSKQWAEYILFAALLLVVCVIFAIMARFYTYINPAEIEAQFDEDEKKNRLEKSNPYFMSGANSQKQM
Protocol: PepT1 assays are established to examine the ability of the amino acid prodrug compounds to interact with the intestinal absorption transporter PepT1.
HeLa cells, derived from human cancer cells, (American Type Culture Collection) are grown in Hyclone Medium (Invitrogen, Cat# SH30243) containing 10% fetal bovine serum (FBS), 0.1 mM non essential amino acids (NEAA), and 100 units/mL penicillin with 100 μg/mL streptomycin at 37° C. in a 5% CO2 humidified atmosphere. The cell line is used for up to 40 passages and then discarded. Frozen cells in 1 mL vials are thawed in water bath for 1-2 minutes and added to 5 mL of cell medium at 37° C. Each of the T-flasks is provided with 8.5 mL of the fresh medium and 1.5 mL of the cell stock. Cells are passaged twice during a week. […] Each new flask receives a combination of 8.5 mL of fresh medium and 1.5 mL of cell stock, in order to obtain 1:6 cell dilution. Cells are incubated at 37° C., until ready for the uptake study.
Cells that are 70-80% confluent in the T-flasks are plated 1 day prior to the transfection procedure. The flask with the cell stock is treated with PBS-EDTA and trypsin to detach the cells, and transfection medium is used from this point. Transfection medium consists of Dulbecco's Modified Eagle Medium (DMEM)+NEAA. To each well, 0.5 mL of the cell mixture is added (1.3×10^5 is the desired cell concentration) and the cells are incubated at 37° C. overnight. Twenty four hours before the assay, cells are transfected with PEPT1. Transfection mixture is prepared by mixing 600 μL of serum free transfection medium, 18 μL of FUGENE6® (Roche Diagnostics), and 11 μg of the PepT1 DNA. The transfection reagent-DNA complex is incubated for 20 minutes and 24 μL of the reagent-DNA complex is added to each well.
Inhibition of PEPT1-mediated [glycyl-1-2-^14C]Glyclysarcosine (GlySar) uptake activity is measured in the cells cultured in the 24-well plates 24-hours post transfection as previously published (Zhang et al. 2004. J. Pharm. Exper Ther. 310:437-445). To measure the ability of a compound of the present invention to inhibit the uptake of [^14C]Gly-Sar, prodrug compounds are incubated with 80 to 90% confluent PepT1 transiently transfected HeLa cells at 5 mM in pH 6.0 uptake medium in the presence of 5 μM [^14C]Gly-Sar (Moravek Biochemicals) and 20 μM cold Gly-Sar. Uptake media consists of 140 mM NaCl, 5.4 mM KCl, 1.8 mM CaCl2, 0.8 mM MgSO4, 5 mM Glucose, 25 mM tris(hydroxymethyl)aminomethane buffer (TRIS). The solution is then brought to pH 6.0 using 2-(N-morpholino)ethanesulfonic acid. The incubation volume is 500 μL and is performed at room temperature for 3 minutes. To stop the uptake at the conclusion of the incubation time, the uptake media is aspirated off of the cell monolayer and 500 μL of ice cold PBS added to the well. The cells are washed 3 times with 500 μL of room temperature PBS without Ca^+2 and Mg^+2. The cells are then lysed with 300 μL of 1% TRITON® X100 H2O solution. A 200 μL aliquot is removed and radioactivity is determined by liquid scintillation counting to measure the [^14C]Gly-Sar present in each of the incubation wells. A no inhibitor control is established and the percent inhibition of each prodrug is calculated with respect to this control.

[1] = tested on: PCP-induced hyperlocomotor activity in mice; test: Reversal of Phencyclidine (PCP)-Induced Hyperlocomotor Activity in Mice; format: in vivo, mouse; conditions: Mus musculus, i.p. administration, 30 minutes prior to 7.5 mg/kg PCP
Text: This assay for Reversal of Phencyclidine (PCP)-Induced Hyperlocomotor Activity in Mice is run substantially as the Reversal of Phencyclidine (PCP)-Induced Hyperlocomotor Activity in Rats assay provided above, using mice instead of rats and with the changes noted below.
Motor activity is monitored by placing individual male, ICR (CD-1), (Harlan, Indianapolis, Ind.) mice in transparent, plastic shoe-box cages of the dimensions 45×25×20 cm, with 0.5 cm depth of wood chips as bedding, and plastic lid on top of the cage. Motor monitors (Kinder Scientific) consist of a rectangular rack of 12 photobeams arranged in an 8×4 formation, (or a high density grouping of 22 in a 15×7 pattern) at a height of 2.5 cm. The shoe box cage is placed inside of these racks, with the racks on a 3 foot high tabletop in an isolated room. A compound of the present invention is dosed (intraperitoneal route, non-prodrug) usually within a range of 0.3-30 mg/kg; though higher doses may be used, 30 minutes prior to a 7.5 mg/kg challenge dose of phencyclidine (PCP). On the test day, mice are placed in the test cage and allowed to acclimate for 45 minutes prior to PCP challenge; mice are monitored for an additional 60 minutes following PCP administration.
Power analyses have determined that 7-8 mice per group are needed to have appropriate statistical power for detecting treatment differences (power=0.8).

human mGlu2 receptor = biological target: T2, human mGlu2 receptor (Homo sapiens, UniProt Q14416); test: Human mGlu2 Agonist FLIPR Assay; format: cell-based; conditions: for Emax: percent stimulation relative to maximal glutamate response (100 μM glutamate), read-out: Relative % Efficacy
T2 construct: expressed in transfected cells; host or cells: AV-12 cells (Syrian hamster fibroblasts), co-transfected with rat EAAT1 and Galpha15
T2 sequence (Q14416 19-872): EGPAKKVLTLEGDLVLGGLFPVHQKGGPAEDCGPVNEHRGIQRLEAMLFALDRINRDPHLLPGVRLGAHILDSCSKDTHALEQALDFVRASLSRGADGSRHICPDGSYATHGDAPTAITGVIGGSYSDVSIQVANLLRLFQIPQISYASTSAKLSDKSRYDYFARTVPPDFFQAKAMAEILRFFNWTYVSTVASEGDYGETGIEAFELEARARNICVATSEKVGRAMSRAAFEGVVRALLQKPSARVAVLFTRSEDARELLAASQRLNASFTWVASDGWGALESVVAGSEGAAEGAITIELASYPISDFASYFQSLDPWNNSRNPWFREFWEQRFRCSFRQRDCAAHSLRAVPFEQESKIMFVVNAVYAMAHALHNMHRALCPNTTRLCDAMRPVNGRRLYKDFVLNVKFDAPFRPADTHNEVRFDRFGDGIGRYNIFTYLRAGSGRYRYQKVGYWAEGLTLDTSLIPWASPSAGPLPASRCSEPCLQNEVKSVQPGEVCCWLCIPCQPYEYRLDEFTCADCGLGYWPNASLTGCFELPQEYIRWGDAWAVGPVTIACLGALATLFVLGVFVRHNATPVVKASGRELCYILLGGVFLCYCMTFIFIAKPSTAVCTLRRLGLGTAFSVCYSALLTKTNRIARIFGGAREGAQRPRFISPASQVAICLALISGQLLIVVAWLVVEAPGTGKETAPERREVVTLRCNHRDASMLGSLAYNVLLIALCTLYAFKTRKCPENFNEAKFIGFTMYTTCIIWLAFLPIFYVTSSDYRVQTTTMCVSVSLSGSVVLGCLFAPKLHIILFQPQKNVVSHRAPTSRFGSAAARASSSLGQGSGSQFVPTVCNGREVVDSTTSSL
Text: AV-12 cell lines, derived from Syrian Hamster fibroblasts and stably expressing the human mGlu2 receptor and co-transfected with the rat glutamate transporter EAAT 1 (Excitatory Amino Acid Transporter 1) and the Gα15 subunit, are used for these studies. The expression of Gα15 allows Gi-coupled receptors to signal through the phospholipase C pathway, resulting in the ability to measure receptor activation by a fluorometric calcium response assay. The cell lines are maintained by culturing in Dulbecco's Modified Eagle's Medium (DMEM) with high glucose and pyridoxine hydrochloride supplemented with 5% dialyzed fetal bovine serum, 1 mM sodium pyruvate, 10 mM HEPES [4-(2-hydroxyethyl)-1-piperazineethanesulfonic acid], 1 mM of L-glutamine, and 5 μg/mL blasticidin (all media are purchased from Invitrogen). Confluent cultures are passaged biweekly using an enzyme-free dissociation solution (Chemicon S-004-B).
Intracellular calcium levels are monitored before and after the addition of compounds using a Fluorometric Imaging Plate Reader (FLIPR®, Molecular Devices). The assay buffer is comprised of Hank's Buffered Salt Solution (HBSS; Sigma) supplemented with 20 mM HEPES. […] The dye solution is removed and replaced with fresh assay buffer (50 μL per well). […] Results are analyzed using PRISM® v4.03 (GraphPad Software). […] Exemplified compounds of the present invention are solubilized as 10 mM stocks in 0.1N NaOH and stored at −20 C. They are diluted through a three-fold dilution series into assay buffer. After taking an initial 5-sec fluorescent read on the FLIPR® instrument, a compound of the present invention is added to the cell plate (50 μL per well). Data are collected every second for the first 30 seconds and then every 3 seconds for a total of 90 seconds in order to detect agonist activity. The maximal response is defined as that induced by ECmax (100 μM glutamate). The compound effect is measured as maximal minus minimal peak heights in relative fluorescent units (RFUs) corrected for basal fluorescence measured in the absence of glutamate. Determinations are carried out using single plates. Agonist effects are quantified as percent stimulation induced by compound alone relative to the maximal glutamate response. All data are calculated as relative EC50 values using a four-parameter logistic curve fitting program (ACTIVITY BASE® v5.3.1.22).

[2] = tested on: immobility in forced swim test in mice; test: Forced Swim Test in Rodents (mice); format: in vivo, mouse; conditions: intraperitoneal dosing 60 min prior to testing
Protocol: In this assay, mechanisms with purported antidepressant-like activity decrease immobility in a brief inescapable forced swim episode.
The forced-swim test was conducted in mice (male, NIH-Swiss mice, 20-25 g, Harlan Sprague-Dawley, Indianapolis, Ind.). Mice are placed in clear plastic cylinders (diameter 10 cm; height: 25 cm) filled to 6 cm with 22-25° C. water for six min. The duration of immobility is recorded during the last 4 min of a six-minute trial. The compounds of Examples 2, 3, 8, 11, and 12 are tested following intraperitoneal dosing, 60 min prior to testing. Imipramine is used as a positive control for these studies. Compounds are formulated in a water vehicle, with minimal NaOH added. The amount of time spent immobile (defined as movements only necessary to keep the subject's head above water) is the dependent measure and recorded by an observer blinded to the drug treatment of the subjects. Data are analyzed by post-hoc Dunnett's test with alpha level set at 0.05.

Row | Emax (human mGlu2 receptor) [%] | inhibition at 5000 µM (PepT1) [%] | Structure (SMILES) | ED50 [1] [mg/kg] | further results
1 | – | – | CC1=C(C(=O)O)N2C(=O)[C@@H](NC(=O)[C@H](N)c3ccc(O)cc3)[C@H]2SC1 [Cefadroxil, reference compound] | – | GlySar uptake inhibition, mean values ± standard deviation (controls) (PepT1): 53.2±13.2%
2 | 78.5 | – | Cl.N[C@@]1(C(=O)O)C[C@@H](Sc2nnc(C(F)(F)F)[nH]2)[C@H]2[C@H](C(=O)O)[C@H]21 [Example 2, (1R,2S,4R,5R,6R)-2-Amino-4-(5-trifluoromethyl-1H-[1,2,4]triazol-3-ylsulfanyl)-bicyclo[3.1.0]hexane-2,6-dicarboxylic acid hydrochloride] | 14.4 | –
3 | – | – | Nc1nnc(S[C@@H]2C[C@@](N)(C(=O)O)[C@@H]3[C@@H](C(=O)O)[C@@H]32)[nH]1 [Example 3, (1R,2S,4R,5R,6R)-2-Amino-4-(5-amino-[1,3,4]triazol-2-ylsulfanyl)-bicyclo[3.1.0]hexane-2,6-dicarboxylic acid] | 17.1 | ED60 (60% of the amount of immobility relative to vehicle controls) [2]: < 3 mg/kg
4 | 92.1 | – | N[C@@]1(C(=O)O)C[C@H](Sc2n[nH]c(C(F)(F)F)n2)[C@H]2[C@H](C(=O)O)[C@H]21 [Example 12, (1R,2S,4S,5R,6R)-2-Amino-4-[[5-(trifluoromethyl)-1H-1,2,4-triazol-3-yl]sulfanyl]bicyclo[3.1.0] hexane-2,6-dicarboxylic acid hydrochloride] | – | –
5 | – | 53.9 | C[C@H](N)C(=O)N[C@@]1(C(=O)O)C[C@@H](Sc2nnc(C(F)(F)F)[nH]2)[C@H]2[C@H](C(=O)O)[C@H]21 [Example 16, (1R,2S,4R,5R,6R)-2-[[(2S)-2-Aminopropanoyl]amino-4-[[5-(trifluoromethyl)-1H-1,2,4-triazol-3-yl]thio]bicyclo[3.1.0]hexane-2,6-dicarboxylic acid hydrochloride] | – | –
6 | – | 46.7 | NCC(=O)N[C@@]1(C(=O)O)C[C@H](Sc2nnc[nH]2)[C@H]2[C@H](C(=O)O)[C@H]21 [Example 22, (1R,2S,4S,5R,6R)-2-[(-2-Aminoacetyl)amino]-4-(4H-1,2,4-triazol-3-ylsulfanyl)bicyclo[3.1.0]hexane-2,6-dicarboxylic acid hydrochloride] | – | –
7 | – | 47.1 | CC(C)C[C@H](N)C(=O)N[C@@]1(C(=O)O)C[C@H](Sc2nnc[nH]2)[C@H]2[C@H](C(=O)O)[C@H]21 [Example 24, (1R,2S,4S,5R,6R)-2-(L-leucylamino)-4-(4H-1,2,4-triazol-3-ylsulfanyl)bicyclo [3.1.0]hexane-2,6-dicarboxylic acid hydrochloride] | – | –
8 | – | – | NCC(=O)O [Glycine, reference compound] | – | GlySar uptake inhibition, mean values ± standard deviation (controls) (PepT1): 10.1±9.5%

Row | Structure (SMILES) | Emax (human mGlu2 receptor) [%] | inhibition at 5000 µM (PepT1) [%] | ED50 [1] [mg/kg] | further results
9 | Cl.N[C@@]1(C(=O)O)C[C@@H](Sc2cn[nH]n2)[C@H]2[C@H](C(=O)O)[C@H]21 [Example 1, (1R,2S,4R,5R,6R)-2-Amino-4-(2H-[1,2,3]triazol-4-ylsulfanyl)-bicyclo[3.1.0]hexane-2,6-dicarboxylic acid hydrochloride] | 92.6 | – | 18.4 | EC50 (human mGlu2 receptor; hMGLUR2 FLIPR assay, AV-12 cells expressing human mGlu2, calcium response, read-out: Relative EC50): 0.046 µM
